Results reported in article PMC12209172, “Poly(ADP-ribose)polymerase 2 is zinc-dependent enzyme and nucleosome reorganizer” (Cellular and Molecular Life Sciences: CMLS, 2025).
Where “and” joins values, the source holds several entries; their conditions need not be identical. Equal values may be shown once. Read-outs that look alike come from different tables or passages of the source.

Key:
WGR domain of PARP2 [1] = molecular target: T1, WGR domain of PARP2 (Homo sapiens, UniProt Q9UGN5); experiment: Tryptophan fluorescence spectroscopy of the WGR domain titrated with divalent cations (one site binding fit); settings: for Kd: Trp fluorescence, one site binding fit, 10 mM HEPES pH 8.0, 150 mM NaCl, residual EDTA present, read-out: dissociation constant of the divalent cation-WGR domain complex; for effect of ions on intensity of tryptophan fluorescence of the WGR domain: WGR domain 5 µM
T1 construct: WGR domain of PARP2 (residues 77–220) into pET-15b-TEV expression vector; 6xHis (pET-15b-TEV) (N, cleaved yes); made in house; host or cells: Escherichia coli Rosetta2 (DE3) pLysS
T1 sequence (Q9UGN5 77-220): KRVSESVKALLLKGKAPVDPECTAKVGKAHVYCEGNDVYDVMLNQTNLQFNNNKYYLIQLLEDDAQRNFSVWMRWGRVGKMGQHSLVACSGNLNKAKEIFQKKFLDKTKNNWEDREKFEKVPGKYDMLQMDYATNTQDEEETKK
Description: Fluorescence spectra of Trp residues were measured in the 300–450 nm spectral range at the 270 nm excitation wavelengths using the Cary Eclipse spectrofluorometer (Varian/Agilent, USA).
Fluorescence of WGR domain was measured at 0.5 or 5 µM in a buffer containing 10 mM HEPES (pH 8.0), 150 mM NaCl and 0.73 or 7.3 µM EDTA, respectively. Solutions were complemented with ZnCl2 (0.2–308 µM) or MgCl2 (15–5000 µM), or CaCl2 (8–5000 µM) dissolved in a buffer containing 10 mM HEPES (pH 8.0), 150 mM NaCl. Intensity of the measured spectra was corrected for the concomitant dilution of the WGR domain. Integral intensities (Ifl.) of fluorescence spectra were averaged over three independent measurements (mean ± SEM) and used to plot the corresponding Ifl. vs. ion concentration graphs. Data were fitted with the one site binding equation:2 [drawing 2]
Where C is the concentration of divalent cations, Kd is a dissociation constant of the complex, Im and Ifl0 are maximal and initial values of Ifl., respectively.

[2] = molecular target: T2, PARP2-nucleosome complexes (Mus musculus, UniProt O88554); experiment: spFRET microscopy in solution of nucleosomes and PARP2-nucleosome complexes; settings: for effect of ions on the nucleosome structure: NP nucleosomes without PARP2, 5 mM ions; for effect of ions on the structure of nucleosomes in PARP2-nucleosome complexes: Zn2+ 0.3 mM, Ca2+ 5 mM or Mg2+ 5 mM
T2 construct: Recombinant mouse full-length PARP2 was obtained in the baculovirus expression system; made in house; host or cells: PARP2: Sf9 insect cells (baculovirus), gift of Prof; O. Lavrik; nucleosomes assembled in house
Description: In the study of nucleosome-PARP2 interactions, nucleosomes (1-2 nM) were incubated with PARP2 (12.5-200 nM) in buffer A (50 mM Tris-HCl pH 7.5; 40 mM NaCl; 0.5 mM β-mercaptoethanol (β-ME); 0.1% NP40) at 25 °C for 30 min. When indicated, buffer A was supplemented with 50 μM - 5 mM ZnCl2, 5 mM CaCl2 or 5 mM MgCl2. […] […] measurements in solution were performed as described previously. Each measured single nucleosome was characterized by FRET between Cy3 and Cy5 labels calculated as a proximity ratio (EPR):1 [drawing 1] Where I3 and I5 are fluorescence intensities of Cy3 and Cy5, respectively, and coefficients 0.19 and 0.81 provide correction for the spectral cross-talk between Cy3 and Cy5 detection channels. EPR is a FRET efficiency not corrected for quantum yields of labels and an instrumentation factor. Relative frequency distributions of nucleosomes by EPR values, i.e. EPR profiles, (2000-5000 nucleosomes per experiment; 3 independent experiments) were plotted and further analyzed as a superposition of several normal (Gaussian) distributions for nucleosomes or nucleosome-PARP2 complexes. Since nucleosomes tend to aggregate when PARP2 is added (especially at high concentrations), treatment of signals measured from nucleosomes and their complexes included mandatory rejection of signals from any aggregates that are clearly recognized due to their slow diffusion rate and/or abnormally high fluorescence intensity.

WGR domain of PARP2 [3] = molecular target: T1, WGR domain of PARP2; experiment: Circular dichroism spectroscopy of the WGR domain (BeStSel secondary structure analysis); parameters: content of a-helix in the WGR domain / content of b-sheet in the WGR domain / content of turn in the WGR domain / content of random coil in the WGR domain: unit not given here; settings: for content of a-helix in the WGR domain / content of b-sheet in the WGR domain / content of random coil in the WGR domain / content of turn in the WGR domain: 5 mM ion, independent measurements
Description: (§1) CD spectra of proteins were recorded within the 190-250 nm spectral range with 0.2 nm step using Jasco-810 spectrophotometer (Jasco, Japan) and the quartz […]® cuvette of 0.1 mm thickness (Hellma, Germany. Secondary structure analysis was performed using BeStSel webserver. To improve the reliability of the analysis, the content of canonical secondary structures of various types was predicted for 3-6 independent measurements, and the values were averaged. The statistical significance of the secondary structure difference was determined using the multiple t-test.

PARP2 [4] = molecular target: T3, PARP2 (Mus musculus, UniProt O88554); experiment: Circular dichroism spectroscopy of PARP2 (BeStSel secondary structure analysis); parameters: Recombinant mouse full-length PARP2 was obtained in the baculovirus expression system; made in house; host or cells: Sf9 insect cells (baculovirus); gift of Prof; O. Lavrik; settings: 0.3 mM Zn2+, 0.7 mM Ca2+ or 0.7 mM Mg2+
Description: as §1

PARP2 [5] = molecular target: T3, PARP2; experiment: Western blot analysis of NAD+-dependent PARylation by PARP2 in PARP2-nucleosome complexes; type: biochemical; parameters: Recombinant mouse full-length PARP2 was obtained in the baculovirus expression system; made in house; host or cells: PARP2: Sf9 insect cells (baculovirus), gift of Prof; O. Lavrik; nucleosomes assembled in house; settings: for effect of EDTA on PARylation: EDTA 10 mM
Description: Probes were subjected to electrophoresis in 4–12% bis-Tris gradient gel in the NuPAGE™ MES SDS Running Buffer at 130 V. […] The membrane was incubated for 60 min in the PBS-T solution supplemented with the 5% skimmed milk. Then the membrane was incubated with mouse monoclonal antibodies 10 H followed by incubation with the secondary anti-mouse antibodies conjugated with horseradish peroxidase (Bio-Rad, Hercules, CA, USA). The washing procedure was carried out after each step of incubation. Immunodetection was performed using the Super Signal West Pico Chemiluminescent Substrate (Thermo Fisher Scientific, Waltham, MA, USA) for 3 min. The Western blot experiments were performed in three independent repetitions.

PARP2 (Mus musculus) [6] = experiment: EMSA; settings: no divalent ions; EMSA: 2-3 nM nucleosomes, 5% PAGE in 0.2x TBE, 140 V, 4 C; divalent ions as given per row; binding buffer not in the material
PARP2 (Mus musculus) [7] = molecular target: PARP2 (Mus musculus) (UniProt O88554); settings: cited from earlier work
PARP2 (Mus musculus) [8] = molecular target: PARP2 (Mus musculus) (UniProt O88554); settings: cited from earlier work; remark: listed apart in the source
[9] = molecular target: Nucleosome assembled on a fluorescently labelled 187-bp DNA template (603 positioning sequence) with histones of chicken donor chromatin (chicken); experiment: native gel or EMSA + other: single particle fluorescence intensity analysis in the gel; nucleosomes NP with PARP2 (50 nM) in buffer A with 0.3 mM Zn2+; native PAGE
NP nucleosomes = molecular target: T4, NP nucleosomes (Mus musculus, UniProt O88554); experiment: EMSA of PARP2-nucleosome complexes (non-denaturing PAGE, FRET-in-gel); type: binding, chicken
T4 construct: Recombinant mouse full-length PARP2 was obtained in the baculovirus expression system; made in house; host or cells: PARP2: Sf9 insect cells (baculovirus), gift of Prof; O. Lavrik; nucleosomes assembled in house
Description: Sample preparation for EMSA was the same as for spFRET microscopy, although a slightly higher concentration of nucleosomes (2–3 nM) was used. The PARP2-nucleosome complexes were subjected to 5% polyacrylamide gel in 0.2×TBE buffer. Electrophoresis was performed under native conditions at 140 V, + 4 °C for ∼1.5 h. The gels were scanned using Amersham Typhoon RGB imager (Cytiva, Sweden). Fluorescence was excited in the gel at the 532 nm wavelength and recorded in the 570–610 nm (Cy3 signal) and 650–700 nm (FRET signal of Cy5) spectral regions. The resulting images were obtained in green (Cy3 signal) and red (FRET signal of Cy5) colors and merged.

nucleosome = settings: read-out: Kd of PARP2-nucleosome complex, cited from earlier work
DNA = settings: read-out: Kd of PARP2 complex with DNA, cited from earlier work

What does the source list for `[Ca+2].[Cl-].[Cl-]` [Ca2+, CaCl2]?
Kd (WGR domain of PARP2 [1]): 29000 ± 14000 nM; effect of ions on intensity of tryptophan fluorescence of the WGR domain (WGR domain of PARP2 [1]): considerably lower than the effect of Zn^2+ ions; effect of ions on the nucleosome structure [2]: minimally affect; effect of ions on the structure of nucleosomes in PARP2-nucleosome complexes ([2]; PARP2 50 nM): not changed; effect of ions on the structure of the WGR domain (CD) (WGR domain of PARP2 [3]): only minimal changes; content of a-helix in the WGR domain (WGR domain of PARP2 [3]): 14.9 and 10.9 and 11.1; content of b-sheet in the WGR domain (WGR domain of PARP2 [3]): 30.1 and 29.5 and 31.3; content of random coil in the WGR domain (WGR domain of PARP2 [3]): 43.7 and 47.2 and 46.3; content of turn in the WGR domain (WGR domain of PARP2 [3]): 11.4 and 12.5 and 11.3; effect of ions on the CD spectrum / conformation of PARP2 (PARP2 [4]): similar

With `O=C(O)CN(CCN(CC(=O)O)CC(=O)O)CC(=O)O` [EDTA, ethylenediaminetetraacetic acid] as the molecule, how does the “effect of EDTA on PARP2-nucleosome complexes preformed in the presence of Zn2+” value ([2]; EDTA 10 mM, Zn2+ 0.15 mM, PARP2 50 nM) read?
The value was “does not reverse the changes in the nucleosome structure”.

And the “effect of EDTA on PARylation” value (PARP2 [5]; Mg2+ 5 mM)?
Its value is “fully reverses the effect of Mg^2+ ions”.

And the “effect of EDTA on PARylation” value (PARP2 [5]; Zn2+ 0.3 mM)?
The value was “strongly enhances the efficiency of PARylation”.

And the “effect of EDTA on PARylation” value (PARP2 [5]; absence of divalent ions)?
Its value is “does not affect PARylation”.

What does the source list for `[Cl-].[Cl-].[Mg+2]` [Mg2+, MgCl2]?
Kd (WGR domain of PARP2 [1]): 180000 ± 80000 nM; effect of ions on intensity of tryptophan fluorescence of the WGR domain (WGR domain of PARP2 [1]): considerably lower than the effect of Zn^2+ ions; effect of ions on the nucleosome structure [2]: minimally affect; effect of ions on the structure of nucleosomes in PARP2-nucleosome complexes ([2]; PARP2 50 nM): not changed; effect of ions on the structure of the WGR domain (CD) (WGR domain of PARP2 [3]): only minimal changes; content of a-helix in the WGR domain (WGR domain of PARP2 [3]): 13.8 and 13.1 and 13.6; content of b-sheet in the WGR domain (WGR domain of PARP2 [3]): 27.8 and 25.8 and 28.5; content of random coil in the WGR domain (WGR domain of PARP2 [3]): 46 and 48.5 and 46.1; content of turn in the WGR domain (WGR domain of PARP2 [3]): 12.3 and 12.6 and 11.7; effect of ions on the CD spectrum / conformation of PARP2 (PARP2 [4]): similar; effect of ions on efficiency of PARP2-mediated PARylation (PARP2 [5]; Mg2+ 5 mM or Zn2+ 0.3 mM, PARP2 100 nM, nucleosomes 3 nM, NAD+ 0-5 µM): increase

For Np nucleosome (s603-42A, 187 bp DNA), which K half (PARP2 (Mus musculus) [6]) is on record?
Its K half is 40 nM.

Which Kd (PARP2 (Mus musculus) [7]) does the source give for PARP2 (from UniProt O88554) here?
The Kd was 152 nM.

And the Kd (PARP2 (Mus musculus) [8])?
Its Kd is 101 nM.

With “Recombinant mouse full-length PARP2 (poly(ADP-ribose)polymerase 2) (from UniProt O88554 1-559) (enzyme)” as the molecule, how does the stoichiometry N (PARP2 per nucleosome) [9] read?
The stoichiometry N (PARP2 per nucleosome) was 1 and 2.

B1: PARP2: Recombinant mouse full-length PARP2 obtained in the baculovirus expression system using Sf9 insect cells (protein)
chain: MAPRRQRSGSGRRVLNEAKKVDNGNKATEDDSPPGKKMRTCQRKGPMAGGKDADRTKDNRDSVKTLLLKGKAPVDPECAAKLGKAHVYCEGDDVYDVMLNQTNLQFNNNKYYLIQLLEDDAQRNFSVWMRWGRVGKTGQHSLVTCSGDLNKAKEIFQKKFLDKTKNNWEDRENFEKVPGKYDMLQMDYAASTQDESKTKEEETLKPESQLDLRVQELLKLICNVQTMEEMMIEMKYDTKRAPLGKLTVAQIKAGYQSLKKIEDCIRAGQHGRALVEACNEFYTRIPHDFGLSIPPVIRTEKELSDKVKLLEALGDIEIALKLVKSERQGLEHPLDQHYRNLHCALRPLDHESNEFKVISQYLQSTHAPTHKDYTMTLLDVFEVEKEGEKEAFREDLPNRMLLWHGSRLSNWVGILSHGLRVAPPEAPITGYMFGKGIYFADMSSKSANYCFASRLKNTGLLLLSEVALGQCNELLEANPKAQGLLRGKHSTKGMGKMAPSPAHFITLNGSTVPLGPASDTGILNPEGYTLNYNEFIVYSPNQVRMRYLLKIQFNFLQLW
For B1, which “PARP2 concentration at which complexes with nucleosomes are formed” value (NP nucleosomes; absence of divalent ions) is on record?
The value was at least 12.5 nM.

And the EC50 (NP nucleosomes; absence of divalent ions, read-out: PARP2 concentration at ~50% decrease in the number of free nucleosomes (50% of nucleosomes in complexes))?
Its EC50 is 40 ± 10 nM.

And the “PARP2 concentration above which aggregation prevents separation of complexes in the gel” value (NP nucleosomes; presence of 0.3 mM Zn2+)?
Its value is “above 50 nM”.

What about the Kd (nucleosome; ref 28) of the same molecule?
Its Kd is 150 nM.

What about the Kd (nucleosome; ref 59) of the same molecule?
Its Kd is 76 nM.

And the Kd (DNA; 18 bp duplex oligonucleotides)?
The Kd was 11 nM.

And the Kd (DNA; 147 bp DNA having a gap)?
Its Kd is 58 nM.

And the Kd (DNA; 147 bp intact DNA)?
Its Kd is 840 nM.
